According to patent publication US11725036B2, “Modified lipidated relaxin B chain peptides and their therapeutic use” (Sanofi, priority 2018, dated 2023):
Values after ≈ are worked out from the molar mass of the structure shown. Read-outs that look alike come from different tables or passages of the source. Starred links: 1 amine or outer side, 2 acyl side, 3 side chain; linkers in the order of their positions; H or OH if unused. Non-standard residues stand in square brackets, D forms with d. Residues, ends and D or L forms follow the SMILES beside them. Groups on a side chain read outwards from the residue. *: point of attachment. X1 = CCCCCCCCCCCCCCCC(=O)N[C@@H](CCC(=O)N[C@@H](CCC(=O)N[C@@H](CCC(=O)NCCCOCCOCCOCCCNC(=O)CCC(=O)NCCCOCCOCCOCCCNC(=O)CCC(=O)NCCCOCCOCCOCCCN*)C(=O)O)C(=O)O)C(=O)O; X2 = CCCCCCCCCCCCCCCC(=O)N[C@@H](CCC(=O)N[C@@H](CCC(=O)N[C@@H](CCC(=O)NCCCOCCOCCOCCCNC(=O)CCC(=O)NCCCOCCOCCOCCCN*)C(=O)O)C(=O)O)C(=O)O; γGlu = O=C(O)[C@H](CCC(=O)[*:2])N[*:1]; Palmitoyl = CCCCCCCCCCCCCCCC(=O)*; Suc = O=C(CCC(=O)[*:2])[*:1]; αMeK = C[C@](N)(CCCCN)C(=O)O; AEEA = NCCOCCOCC(=O)O; Aib = CC(C)(N)C(=O)O

Legend:
RXFP1 = biological target: T1, RXFP1 (Homo sapiens, UniProt Q9HBX9); experiment: OVCAR5 cAMP assay (HTRF); type: cell-based; settings: for EC50: OVCAR 5 cells expressing endogenous RXFP1, cAMP readout; for Emax: OVCAR 5 cells, maximal cAMP relative to H2-relaxin
T1 construct: OVCAR5 cells expressing endogenous RXFP1; endogenous in cells; host or cells: OVCAR5
T1 sequence (Q9HBX9 1-757): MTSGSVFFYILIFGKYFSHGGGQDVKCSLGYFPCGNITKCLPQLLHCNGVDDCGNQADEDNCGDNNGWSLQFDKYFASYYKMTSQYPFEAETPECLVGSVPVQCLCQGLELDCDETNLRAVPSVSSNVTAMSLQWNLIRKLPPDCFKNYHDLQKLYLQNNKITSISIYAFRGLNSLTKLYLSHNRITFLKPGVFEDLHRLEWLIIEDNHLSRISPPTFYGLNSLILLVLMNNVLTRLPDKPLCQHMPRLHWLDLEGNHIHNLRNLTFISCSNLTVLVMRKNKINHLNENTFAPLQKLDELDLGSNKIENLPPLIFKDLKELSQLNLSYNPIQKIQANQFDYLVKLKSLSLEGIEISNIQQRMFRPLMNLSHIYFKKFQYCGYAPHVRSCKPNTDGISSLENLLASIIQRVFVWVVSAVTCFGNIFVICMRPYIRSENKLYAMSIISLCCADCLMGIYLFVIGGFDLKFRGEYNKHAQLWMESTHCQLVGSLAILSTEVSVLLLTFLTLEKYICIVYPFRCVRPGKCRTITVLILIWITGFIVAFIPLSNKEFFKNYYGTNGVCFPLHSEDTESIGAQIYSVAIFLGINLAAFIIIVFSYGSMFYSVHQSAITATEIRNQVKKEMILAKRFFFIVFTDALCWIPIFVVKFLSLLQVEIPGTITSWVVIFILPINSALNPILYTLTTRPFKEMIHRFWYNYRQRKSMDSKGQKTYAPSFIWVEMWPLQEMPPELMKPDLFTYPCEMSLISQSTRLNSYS
Method in brief: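 Endogenous RXFP1 in OVCAR5 cells, pretreated 40 min at 37° C with 1 mM IBMX, then exposed to increasing peptide concentrations in serum-free medium for 30 min at 37° C. cAMP read by HTRF; EC50 by variable-slope sigmoidal fit, Emax as % of H2-relaxin maximal cAMP in same run.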

[1] = Solubility testing in buffer; type: physicochemical; settings: target solubility 10.0 mg/ml
Description: Prior to the testing of solubility of a peptide batch, its purity (HPLC-UV) was determined.
Acetate Buffer 50 mM pH4.5: 0.75 g C2H3C02Na,3H2O (Sigma S7545)+0.35 ml CH3CO2H 100% solution dissolved in Millipore water, adjusted to pH with diluted (1:1) CH3CO2H and diluted to 250 ml with Millipore water.
In a 4 ml Ependorph vial, an accurately weighed sample of compound was diluted in study media to obtain target concentration of 2, 6 or 10 mg/ml of pure compound. The sample vials were shacked (rock 'roll shaker) for ˜19 h. 300 μL aliquots were filtered through a Millipore “Solvinert” plate (0.45 μm-PTFE hydrophilic).
pH was measured with a micro electrode
Waters Acquity UPLC System with DAD detector
Column: Waters Peptide Column CSH C18 (130 Å; 1.7 μm; 50*2.1 mm)
Column temperature: 60° C.
Full loop (about 5 μL)—overfill factor 5
Weak et Strong wash: H2O/ACN (75/25; V/V); Seal wash: H2O/IsOH (95/5; V/V). Mobile phase:
Solvent A: 0.05% TFA in H2O; Solvent B: 0.035% TFA in CH3CN
Gradient: from 0 to 12 min B=2% to 60%, from 12 to 14 min B=60% to 100%. Column washing 100% B 1 min, column equilibration 2% B 2.5 min.
UV detector: wavelength: 220 nm.

[2] = acetate buffer 50 mM pH 4.5, read-out: Solubility Acetate buffer pH 4.5
[3] = phosphate buffer 50 mM pH 7.4, read-out: Solubility phosphate buffer pH 7.4

SMILES	EC50 (RXFP1) [nM]	Emax (RXFP1) [%]	solubility [1, 2] [µg/mL]	solubility [1, 3] [µg/mL]
CCCCCCCCCCCCCCCC(=O)N[C@@H](CCC(=O)N[C@@H](CCC(=O)N[C@@H](CCC(=O)NCCCOCCOCCOCCCNC(=O)CCC(=O)NCCCOCCOCCOCCCNC(=O)CCC(=O)NCCCOCCOCCOCCCNC(=O)CCC(=O)NCCCC[C@H](NC(=O)CNC(=O)[C@H](CCC(=O)O)NC(=O)C(C)(C)NC(=O)C(C)(C)NC(=O)[C@@H](NC(=O)[C@H](CCCCNC(C)=O)NC(=O)[C@H](C)NC(=O)[C@H](CCCNC(=N)N)NC(=O)[C@@H](NC(=O)[C@H](CCCCN)NC(=O)[C@H](CCC(=O)O)NC(=O)[C@H](CCCNC(=N)N)NC(=O)CNC(=O)[C@H](CCC(=O)O)NC(=O)[C@H](CC(C)C)NC(C)=O)C(C)C)[C@@H](C)CC)C(=O)N[C@@H](CO)C(=O)N[C@H](C(=O)N[C@@H](Cc1c[nH]c2ccccc12)C(=O)N[C@H](CO)C(=O)N[C@@H](CCCCN)C(=O)N[C@@H](CCCNC(=N)N)C(=O)N[C@@H](C)C(=O)N[C@@H](CCCCNC(C)=O)C(N)=O)[C@@H](C)O)C(=O)O)C(=O)O)C(=O)O [compound 44] (Ac-LEGREKVRAK(Ac)I[Aib][Aib]EGK([Suc-X1])STW[dS]KRAK(Ac)-NH2)	2.2	97	11100 (≈ 2520 µM)	10700 (≈ 2440 µM)
CCCCCCCCCCCCCCCC(=O)N[C@@H](CCC(=O)N[C@@H](CCC(=O)N[C@@H](CCC(=O)NCCCOCCOCCOCCCNC(=O)CCC(=O)NCCCOCCOCCOCCCNC(=O)CCC(=O)NCCCOCCOCCOCCCNC(=O)CCC(=O)NCCCC[C@H](NC(=O)CNC(=O)[C@H](CCC(=O)O)NC(=O)C(C)(C)NC(=O)C(C)(C)NC(=O)[C@@H](NC(=O)[C@H](CCCCNC(C)=O)NC(=O)[C@H](C)NC(=O)[C@H](CCCNC(=N)N)NC(=O)[C@@H](NC(=O)[C@H](CCCCN)NC(=O)[C@H](CCC(=O)O)NC(=O)[C@H](CCCNC(=N)N)NC(=O)CNC(=O)[C@H](CCC(=O)O)NC(=O)[C@H](CC(C)C)NC(C)=O)C(C)C)[C@@H](C)CC)C(=O)N[C@@H](CO)C(=O)N[C@H](C(=O)N[C@@H](Cc1c[nH]c2ccccc12)C(=O)N[C@@H](CO)C(=O)NC(C)(C)C(=O)N[C@@H](CCCNC(=N)N)C(=O)N[C@@H](C)C(=O)N[C@@H](CCCCN)C(N)=O)[C@@H](C)O)C(=O)O)C(=O)O)C(=O)O [compound 71] (Ac-LEGREKVRAK(Ac)I[Aib][Aib]EGK([Suc-X1])STWS[Aib]RAK-NH2)	0.36	95	8280 (≈ 1930 µM)	8770 (≈ 2040 µM)
CCCCCCCCCCCCCCCC(=O)N[C@@H](CCC(=O)N[C@@H](CCC(=O)N[C@@H](CCC(=O)NCCCOCCOCCOCCCNC(=O)CCC(=O)NCCCOCCOCCOCCCNC(=O)CCC(=O)NCCCOCCOCCOCCCNC(=O)CCC(=O)NCCCC[C@H](NC(=O)CNC(=O)[C@H](CCC(=O)O)NC(=O)C(C)(C)NC(=O)C(C)(C)NC(=O)[C@@H](NC(=O)[C@H](CCCCNC(C)=O)NC(=O)[C@H](C)NC(=O)[C@H](CCCNC(=N)N)NC(=O)[C@@H](NC(=O)[C@H](CCC(N)=O)NC(=O)[C@H](CCC(=O)O)NC(=O)[C@H](CCCNC(=N)N)NC(=O)CNC(=O)[C@H](CCC(=O)O)NC(=O)[C@H](CC(C)C)NC(C)=O)C(C)C)[C@@H](C)CC)C(=O)N[C@@H](CO)C(=O)N[C@H](C(=O)N[C@@H](Cc1ccccc1)C(=O)N[C@@H](CO)C(=O)N[C@@](C)(CCCCN)C(=O)N[C@@H](CCCNC(=N)N)C(=O)N[C@@H](C)C(=O)N[C@@H](CCCCNC(C)=O)C(N)=O)[C@@H](C)O)C(=O)O)C(=O)O)C(=O)O [compound 25] (Ac-LEGREQVRAK(Ac)I[Aib][Aib]EGK([Suc-X1])STFS[αMeK]RAK(Ac)-NH2)	28.7	100	6580 (≈ 1510 µM)	6750 (≈ 1550 µM)
CCCCCCCCCCCCCCCC(=O)N[C@@H](CCC(=O)N[C@@H](CCC(=O)N[C@@H](CCC(=O)NCCCOCCOCCOCCCNC(=O)CCC(=O)NCCCOCCOCCOCCCNC(=O)CCC(=O)NCCCC[C@H](NC(=O)CNC(=O)[C@H](CCC(=O)O)NC(=O)C(C)(C)NC(=O)C(C)(C)NC(=O)[C@@H](NC(=O)[C@H](CCCCNC(C)=O)NC(=O)[C@H](C)NC(=O)[C@H](CCCNC(=N)N)NC(=O)[C@@H](NC(=O)[C@H](CCCCN)NC(=O)[C@H](CCC(=O)O)NC(=O)[C@H](CCCNC(=N)N)NC(=O)CNC(=O)[C@H](CCC(=O)O)NC(=O)[C@H](CC(C)C)NC(C)=O)C(C)C)[C@@H](C)CC)C(=O)N[C@@H](CO)C(=O)N[C@H](C(=O)N[C@@H](Cc1c[nH]c2ccccc12)C(=O)N[C@@H](CO)C(=O)N[C@H](CCCCN)C(=O)N[C@@H](CCCNC(=N)N)C(=O)N[C@@H](C)C(=O)N[C@@H](CCCCNC(C)=O)C(N)=O)[C@@H](C)O)C(=O)O)C(=O)O)C(=O)O [compound 17] (Ac-LEGREKVRAK(Ac)I[Aib][Aib]EGK([Suc-X2])STWS[dK]RAK(Ac)-NH2)	4.6	91	9220 (≈ 2260 µM)	6810 (≈ 1670 µM)
CCCCCCCCCCCCCCCC(=O)N[C@@H](CCC(=O)N[C@@H](CCC(=O)N[C@@H](CCC(=O)NCCOCCOCC(=O)NCCOCCOCC(=O)NCCOCCOCC(=O)NCCOCCOCC(=O)NCCCC[C@H](NC(=O)CNC(=O)[C@H](CCC(=O)O)NC(=O)C(C)(C)NC(=O)C(C)(C)NC(=O)[C@@H](NC(=O)[C@H](CCCCNC(C)=O)NC(=O)[C@H](C)NC(=O)[C@H](CCCNC(=N)N)NC(=O)[C@@H](NC(=O)[C@H](CCCCN)NC(=O)[C@H](CCC(=O)O)NC(=O)[C@H](CCCNC(=N)N)NC(=O)CNC(=O)[C@H](CCC(=O)O)NC(=O)[C@H](CC(C)C)NC(C)=O)C(C)C)[C@@H](C)CC)C(=O)N[C@@H](CO)C(=O)N[C@H](C(=O)N[C@@H](Cc1c[nH]c2ccccc12)C(=O)N[C@@H](CO)C(=O)NC(C)(C)C(=O)N[C@@H](CCCNC(=N)N)C(=O)N[C@@H](CCCCN)C(=O)N[C@@H](CCCCNC(C)=O)C(N)=O)[C@@H](C)O)C(=O)O)C(=O)O)C(=O)O [compound 5] (Ac-LEGREKVRAK(Ac)I[Aib][Aib]EGK([AEEA-AEEA-AEEA-AEEA-γGlu-γGlu-γGlu-Palmitoyl])STWS[Aib]RKK(Ac)-NH2)	9.1	85	6240 (≈ 1530 µM)	6410 (≈ 1570 µM)
CCCCCCCCCCCCCCCC(=O)N[C@@H](CCC(=O)N[C@@H](CCC(=O)N[C@@H](CCC(=O)NCCCOCCOCCOCCCNC(=O)CCC(=O)NCCCOCCOCCOCCCNC(=O)CCC(=O)NCCCOCCOCCOCCCNC(=O)CCC(=O)NCCCC[C@H](NC(=O)CNC(=O)[C@H](CCC(=O)O)NC(=O)C(C)(C)NC(=O)C(C)(C)NC(=O)[C@@H](NC(=O)[C@H](CCCCNC(C)=O)NC(=O)[C@H](C)NC(=O)[C@H](CCCNC(=N)N)NC(=O)[C@@H](NC(=O)[C@H](CCCCN)NC(=O)[C@H](CCC(=O)O)NC(=O)[C@H](CCCNC(=N)N)NC(=O)CNC(=O)[C@H](CCC(=O)O)NC(=O)[C@H](CC(C)C)NC(C)=O)C(C)C)[C@@H](C)CC)C(=O)N[C@@H](CO)C(=O)N[C@H](C(=O)N[C@@H](Cc1ccccc1)C(=O)NC(C)(C)C(=O)N[C@@H](CCCNC(=N)N)C(=O)N[C@@H](CCCNC(=N)N)C(=O)N[C@@H](C)C(=O)N[C@@H](CCCCNC(C)=O)C(N)=O)[C@@H](C)O)C(=O)O)C(=O)O)C(=O)O [compound 72] (Ac-LEGREKVRAK(Ac)I[Aib][Aib]EGK([Suc-X1])STF[Aib]RRAK(Ac)-NH2)	0.56	91	8250 (≈ 1890 µM)	8720 (≈ 1990 µM)
